Test results: patent US20090215796A1, “Compositions, Kits and Methods for a Titration Schedule for Pardoprunox Compounds” (Solvay Pharmaceuticals B.V., priority 2008, published 2009)

Tests used:
human subjects = assay: Clinical investigations on pardoprunox hydrochloride (general tolerability); assay type: in vivo
dopamine D3 receptor = dopamine D3 receptor (Homo sapiens, UniProt P35462); settings: cited from earlier work
early PD patients = assay: First pivotal study S308.3.001, fixed and flexible dose arms versus placebo; assay type: in vivo, human
Method: In the first pivotal study in early PD patients (study S308.3.001), the efficacy and safety of two fixed dose arms of pardoprunox (6 mg/day [n=115; Group 1] and 12 mg/day [n=118; Group 2]), and a flexible dose arm (12-42 mg/day [n=116; Group 3]) was compared to placebo (n=119) (see Table 6 for titration schedules used).

dopamine D2 receptor = dopamine D2 receptor (Homo sapiens, UniProt P14416); settings: cited from earlier work
5-HT1A = target: T1, 5-HT1A (Homo sapiens, UniProt P08908); settings: cited from earlier work
T1 sequence (P08908 1-422): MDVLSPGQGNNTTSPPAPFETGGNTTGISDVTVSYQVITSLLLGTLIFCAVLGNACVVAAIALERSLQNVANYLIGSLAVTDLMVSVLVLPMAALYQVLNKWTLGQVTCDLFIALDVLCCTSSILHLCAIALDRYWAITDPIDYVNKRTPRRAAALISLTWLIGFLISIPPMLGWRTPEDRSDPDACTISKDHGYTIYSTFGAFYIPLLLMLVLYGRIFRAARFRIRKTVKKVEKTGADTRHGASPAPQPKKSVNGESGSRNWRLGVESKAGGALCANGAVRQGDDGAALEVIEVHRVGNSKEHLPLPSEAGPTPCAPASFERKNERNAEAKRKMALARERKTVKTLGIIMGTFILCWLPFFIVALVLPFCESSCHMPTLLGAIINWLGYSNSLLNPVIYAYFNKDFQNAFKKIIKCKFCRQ

[1] = system: subjects with PD characterized by motor fluctuations; assay: Safety study S308.3.005, two titration schedules of pardoprunox as adjunctive treatment to L-dopa; assay type: in vivo, human
Method: In this study, primarily a safety study, 62 subjects with PD characterized by motor fluctuations were randomized to one of three different treatment arms, consisting of two pardoprunox treatment arms (total daily dose 0.3-42 mg three times daily [tid]; groups 1 [25 subjects] and 2 [26 subjects]) and one placebo arm [11 subjects]). The study included a seven-week ascending dose period of pardoprunox as adjunctive treatment to L-dopa. The effect of two different titration schedules was investigated on the safety and tolerability profile, as well as the need and time required for L-dopa dose and/or regimen adjustments (see Table 4). The difference between the two pardoprunox groups was in titration steps taken to achieve at the same time the main study dose levels, namely Group 1—weekly, larger dose increments versus Group 2—with every 3 and 4-days smaller dose steps to the same ‘end of week’ pardoprunox main doses. In the group with the more gradual titration more than 92% of the subjects (24 out of 26) reached doses of 18 mg/day or higher, and 65% (17 out of 26 subjects) reached the highest dose level of 42 mg/day.

subjects with early PD = assay: Double-blind, placebo-controlled proof of principle study S308.2.004, pardoprunox monotherapy; assay type: in vivo, human
Method: In a double-blind, placebo-controlled proof of principle (PoP) study (S308.2.004), the effects of pardoprunox on efficacy, safety and tolerability as monotherapy in early PD were investigated including 138 randomized and treated subjects. Following a fixed-flexible titration period (average length of 24 days), subjects were kept on maintenance dose levels for three weeks (9, 12, 15, 18, 24, 30, 36 or 45 mg/day). Study medication was taken orally three times daily (tid), in the morning, at noon and in the evening, with any missed doses not taken subsequently.
The dose of pardoprunox was progressively titrated from 0.3 mg/day to 9 mg/day according to a predefined schedule within 10 days, and to 30 mg/day within 20 days, by giving single dose unit or a combination of single dose unit. Daily doses were given over the day in the form of three dosage units. Up to the dose of 30 mg/day the titration was based on tolerability only, meaning that every next day (until step 10) or every other day (step 10-14) the dose was to be increased with one step if well-tolerated by the patient (see Table 3). […] From that moment, the patient had to stay on that lower dose level for 2 full days (at least 6 administrations) before trying the higher level again. The first administration of the higher dose had to be done in the morning. For a given titration step only one subsequent second attempt was allowed to reach the higher dose level. In total, three dose adjustments (on different titration steps) were allowed. If patients still could not reach a certain dose level after two sequential attempts and that dose level was below the minimum required dose level of 9 mg/day, they were not allowed to enter the maintenance phase. If a dose level of at least 9 mg/day has already been reached, they were allowed to maintain that dose level for the entire maintenance phase. Patients who reached the 30 mg/day dose could continue to escalate to 45 mg if tolerability allowed, and if further efficacy was expected. […]

animal models = settings: cited from earlier work

dopamine D3 receptor, sequence (P35462 whole entry): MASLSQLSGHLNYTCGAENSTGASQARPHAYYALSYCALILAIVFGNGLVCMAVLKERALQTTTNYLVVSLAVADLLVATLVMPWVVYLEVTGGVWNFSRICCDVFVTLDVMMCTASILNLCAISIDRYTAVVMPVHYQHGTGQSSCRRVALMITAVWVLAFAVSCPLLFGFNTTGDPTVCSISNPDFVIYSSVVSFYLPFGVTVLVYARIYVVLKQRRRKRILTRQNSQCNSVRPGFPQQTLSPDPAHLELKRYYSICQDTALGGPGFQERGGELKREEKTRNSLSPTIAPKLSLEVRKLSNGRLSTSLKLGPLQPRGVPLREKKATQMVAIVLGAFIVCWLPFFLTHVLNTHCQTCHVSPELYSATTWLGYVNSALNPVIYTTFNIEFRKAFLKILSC
dopamine D2 receptor, sequence (P14416 whole entry): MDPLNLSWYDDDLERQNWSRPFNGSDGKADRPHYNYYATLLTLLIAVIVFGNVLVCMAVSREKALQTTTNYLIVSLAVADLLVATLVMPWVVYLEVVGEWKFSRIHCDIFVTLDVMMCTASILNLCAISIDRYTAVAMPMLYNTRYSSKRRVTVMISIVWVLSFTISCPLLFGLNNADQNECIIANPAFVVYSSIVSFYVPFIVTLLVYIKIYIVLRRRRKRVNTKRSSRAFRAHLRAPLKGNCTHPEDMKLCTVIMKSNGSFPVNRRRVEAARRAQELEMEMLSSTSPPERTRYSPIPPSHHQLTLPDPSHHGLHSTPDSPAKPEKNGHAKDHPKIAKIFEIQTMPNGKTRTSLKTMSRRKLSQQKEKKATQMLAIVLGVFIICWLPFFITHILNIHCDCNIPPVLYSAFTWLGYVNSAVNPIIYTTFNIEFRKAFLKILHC

Structure (SMILES)	tolerability (human subjects; clinical investigations)	agonist activity at dopamine D3 receptor (dopamine D3 receptor)	tolerability (early PD patients; 6 mg/day fixed dose group versus higher dose groups)	primary outcome measure UPDRS motor score versus placebo (early PD patients; all active treatment arms: 6 mg/day, 12 mg/day, 12-42 mg/day)	minimum effective dose (early PD patients; early PD patient population, conclusion from study)	agonist activity at dopamine D2 receptor (dopamine D2 receptor)	agonist activity at 5-HT1A (5-HT1A)	doses or titration steps not tolerated (defined as causing more than 20% drop outs) ([1]; 0.3-42 mg/day tid)	subjects who terminated the study due to treatment related Adverse Effects ([1]; between 18 and 30 mg/day, group with smaller dose increments (four subjects))	drop-out rate ([1]; group with the larger, weekly dose increments (Group 1) compared with Group 2 and placebo, FIG. 1)	subjects who reached the highest dose level of 42 mg/day ([1]; group with the more gradual titration (Group 2), 17 out of 26 subjects)	drop out rate due to treatment related Adverse Effects ([1]; up to the 18 mg/day dose, group with smaller dose increments)	efficacy between subgroups treated with 9-15 mg/day, 18-30 mg/day and >30-45 mg/day (subjects with early PD; explorative evaluation, dose/effect plot)	subjects who reached the highest dose level of 45 mg/day (subjects with early PD; flexible titration based on tolerability, tid oral)	subjects treated with pardoprunox doses of ≧30 mg/day (subjects with early PD; flexible titration based on tolerability, tid oral, maintenance 9-45 mg/day)	tolerability (human subjects; healthy human subjects)	anti-PD effect (animal models)	antidepressant and anxiolytic efficacy (animal models)
CN1CCN(c2cccc3[nH]c(=O)oc23)CC1.Cl [pardoprunox hydrochloride, 7-(4-methyl)-1-piperazinyl-2(3H)-benzoxazolone hydrochloride]	well tolerated	–	–	–	–	–	–	–	–	–	–	–	–	–	–	–	–	–
CN1CCN(c2cccc3[nH]c(=O)oc23)CC1 [pardoprunox, 7-(4-methyl)-1-piperazinyl-2(3H)-benzoxazolone]	–	partial dopamine D2 and D3 receptor agonist	better than that of the higher dose groups	statistically superior to placebo	< 12 mg/day	partial dopamine D2 and D3 receptor agonist	full 5-HT1A agonist activity	no particular doses or titration steps that could not be tolerated	15%	much higher drop-out rate	65%	4%	did not provide any clear differences in efficacy	approximately 16%	Approximately 40%	relatively well tolerated	marked and long-lasting anti-PD effect	evidence of antidepressant and anxiolytic efficacy
